Reference: ChEMBL document CHEMBL4376811, “Naturally Occurring Lumazines” (J Nat Prod, 2019)
Values after ≈ are worked out from the molar mass of the structure shown.

Legend:
Cathepsin B = Cathepsin B (Homo sapiens, UniProt P07858); assay: Inhibition of cathepsin B (unknown origin) assessed as reduction in enzyme activity
PC-12 = assay: Anti-anoxic activity in rat PC12 cells reduction in assessed as sodium hydrosulfite-induced cell injury; assay type: functional, cell-based
[1] = biological target: Sodium/potassium-transporting ATPase; assay: Inhibition of Na+/K+-ATPase in human placental syncytiotrophoblast-microvillous membranes/basal membranes using 3-O-methylfluorescein phosphate by fluorometric method
[2] = Inhibition of Magnaporthe grisea Guy 11 isocitrate lyase; parameters: species or system Pyricularia grisea
Sortase A = biological target: T1, Sortase A (Staphylococcus aureus, UniProt Q9S446); assay: Inhibition of recombinant Staphylococcus aureus ATCC 6538p sortase A incubated for 1 hr in presence of (Dabcyl-QALPETGEE-Edans substrate by fluorescence spectrophotometry
T1 sequence (Q9S446 whole entry): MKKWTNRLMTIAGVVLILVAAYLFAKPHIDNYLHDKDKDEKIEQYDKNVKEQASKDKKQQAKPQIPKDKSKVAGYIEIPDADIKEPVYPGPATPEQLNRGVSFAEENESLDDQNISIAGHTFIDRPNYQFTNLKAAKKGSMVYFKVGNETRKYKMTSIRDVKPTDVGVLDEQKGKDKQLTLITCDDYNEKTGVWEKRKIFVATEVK

CN(CCc1cnc[nH]1)c1cnc2[nH]c(=O)[nH]c(=O)c2n1
IC50 (Cathepsin B): 4.87 µM

CSc1c(C(=O)O)sc2nc3[nH]c(=O)[nH]c(=O)c3nc12
EC50 (PC-12): 27 mg/L (≈ 87 µM)

COC(=O)c1ccccc1NC(=O)[C@H](CO)NC(=O)c1cnc2c(n1)c(=O)[nH]c(=O)n2C
IC50 [1]: > 100 µM
IC50 [2]: > 100 µM
IC50 (Sortase A): > 100 µM

COC(=O)c1ccccc1NC(=O)[C@@H](NC(=O)c1cnc2c(n1)c(=O)[nH]c(=O)n2C)[C@@H](C)O
IC50 [1]: > 100 µM
IC50 [2]: > 100 µM
IC50 (Sortase A): > 100 µM

CSc1c(C(=O)CO)sc2nc3[nH]c(=O)[nH]c(=O)c3nc12
EC50 (PC-12): 19.5 mg/L (≈ 60.2 µM)

COCCOC(=O)C1=C(C)NC(C)=C(C(=O)OC(C)C)C1c1cccc([N+](=O)[O-])c1 (stereo not given) [NIMODIPINE]
EC50 (PC-12): 1.29 mg/L (≈ 3.08 µM)
